For eight molecules, melting point, kill and efficacy results are on record in patent US6380237B1, “Diphenylimidazolines” (Bayer Aktiengesellschaft, priority 1998, dated 2002).

Molecules are shown by their SMILES.

Data set [1] deals with caterpillars of the army worm (Spodoptera frugiperda). The data set is described as follows: Spodoptera frugiperda test. The note with it: active compound concentration of 0.1%, after 7 days, dipped cabbage leaves. It is filed as in vivo. On the procedure: Spodoptera frugiperda test
(§1) Solvent: 7 parts by weight of dimethylformamide
(§2) Emulsifier: 1 part by weight of alkylaryl polyglycol ether
To prepare a suitable preparation of active compound, 1 part by weight of active compound is mixed with the stated amount of solvent and emulsifier, and the concentrate is diluted with water to the desired concentration.
Cabbage leaves (Brassica oleracea) are treated by being dipped into the preparation of active compound of the desired concentration and populated with caterpillars of the army worm (Spodoptera frugiperda) while the leaves are still moist.
After the desired period of time, the kill in % is determined. 100% means that all caterpillars have been killed; 0% means that none of the caterpillars have been killed.

Data set [2] deals with Lucilia cuprina larvae. Nature of the data set: Blowfly larvae test/development-inhibitory action. The format is in vivo. The settings on record: active compound concentration of 100 ppm; 100% means that none of the flies have hatched. How it is done: Blowfly larvae test/development-inhibitory action
Test animals: Lucilia cuprina larvae
Solvent: Dimethylsulfoxide
20 mg of active compound are dissolved in 1 ml of dimethyl suiphoxide, and more dilute concentrations are prepared by dilution with dist. water.
Approximately 20 Lucilia cuprina larvae are introduced into a test tube which contains approximately 1 cm^3 of horse meat and 0.5 ml of the active compound preparation to be tested. After 24 and 48 hours, the efficacy of the preparation of active compound is determined. The test tubes are transferred into a beaker with sand-covered bottom. After a further 2 days, the test tubes are removed and the pupae are counted.
The effect of the preparation of active compound is assessed by the number of the flies which have hatched after 1.5 times the development time of an untreated control. 100% means that none of the flies have hatched; 0% means that all flies have hatched normally.

Data set [3] has as its system all stages of the greenhouse red spider mite (Tetranychus urticae). The data set is described as follows: Tetranychus test (OP-resistant/dip treatment). It is filed as in vivo. On the procedure:
Tetranychus test (OP-resistant/dip treatment)
as §1, §2
To produce a suitable preparation of active compound, 1 part by weight of active compound is mixed with the stated amount of solvent and emulsifier, and the concentrate is diluted with emulsifier-containing water to the desired concentration.
Bean plants (Phaseolus vulgaris) which are heavily infested by all stages of the greenhouse red spider mite (Tetranychus urticae) are dipped into a preparation of active compound of the desired concentration.
After the desired period of time, the effect in % is determined. 100% means that all spider mites have been killed, 0% means that none of the spider mites have been killed.

The subject of data set [4] is mustard beetle larvae (Phaedon cochleariae). The data set is described as follows: Phaedon larvae test. The format is in vivo. The settings on record: active compound concentration of 0.1%, after 7 days, dipped cabbage leaves. On the procedure:
Phaedon larvae test Solvent: 7 parts by weight of dimethylfornamide Emulsifier: 1 part by weight of alkylaryl polyglycol ether To produce a suitable preparation of active compound, 1 part by weight of active compound is mixed with the stated amount of solvent and emulsifier, and the concentrate is diluted with water to the desired concentration. Cabbage leaves (Brassica oleracea) are treated by being dipped into the preparation of active compound of the desired concentration and populated with mustard beetle larvae (Phaedon cochleariae) while the leaves are still moist.

Where [5] appears, read: active compound concentration of 0.01%, after 7 days, dipped bean plants.

As a reminder, the melting point is the temperature of the solid-liquid transition.

Turning to `CCOC(=O)N1CC(c2ccc(-c3ccc(OC(F)(F)F)cc3)cc2)N=C1c1c(F)cccc1F` (stereo not drawn) [Example I-3, 1-ethoxycarbonyl4-(4′-trifluoromethoxy-4-biphenylyl)-2-(2,6-difluoro-phenyl)-4,5-dihydro-1H-imidazole], the melting point lay in the range of 105 to 107 °C. The molecule also registered a kill in data set [1] of 100%. Also, the efficacy in data set [2] was found to be 100%. For the same molecule, in data set [3] (168 h), the kill stood at 100%.
In the case of `CCOC(=O)N1CC(c2ccc(-c3ccc(OC(F)(F)F)cc3)cc2)N=C1c1ccccc1Cl` (stereo not drawn) [Example I-4, 2-(2-chlorophenyl)-1-ethoxycarbonyl-4-(4′-trifluormethoxy-4-biphenylyl)-4,5-dihydro-1H-imidazole], the kill in data set [1] and in data set [4] was 100% throughout.
As for `N#CN1CC(c2ccc(-c3ccc(OC(F)(F)F)cc3)cc2)N=C1c1c(F)cccc1F` (stereo not drawn) [Example I-5a, 1-cyano-4-(4′-trifluoromethoxy-4-biphenylyl)-2-(2,6-difluorophenyl)-4,5-dihydro-1H-imidazole], the melting point was 123 to 124 °C. Besides, the kill in data set [1] amounted to 100%. The kill in data set [4] is 100%. The kill in data set [3] (setting [5]) worked out at 100%.
As to `N#CN1C(c2c(F)cccc2F)=NCC1c1ccc(-c2ccc(OC(F)(F)F)cc2)cc1` (stereo not drawn) [Example I-5b, 3-cyano-4-(4′-trifluoromethoxy-4-biphenylyl)-2-(2,6-difluorophenyl)-4,5-dihydro-3H-imidazole], the kill in data set [1], in data set [4] and in data set [3] (setting [5]) was 100% in each case.
`CCOCN1CC(c2ccc(-c3ccc(OC(F)(F)F)cc3)cc2)N=C1c1c(F)cccc1F` (stereo not drawn) [Example I-6a, 1-ethoxymethyl-4-(4′-trifluoromethoxy-4-biphenylyl)-2-(2,6-difluorophenyl)-4,5-di-hydro-1H-imidazole]: the kill in data set [1], in data set [4] and in data set [3] (setting [5]) was 100% in each case.
As for `CCOCN1C(c2c(F)cccc2F)=NCC1c1ccc(-c2ccc(OC(F)(F)F)cc2)cc1` (stereo not drawn) [Example I-6b, 3-ethoxymethyl-4-(4′-trifluoromethoxy-4-biphenylyl)-2-(2,6-difluorophenyl)-4,5-di-hydro-3H-imidazole], the kill in data set [4] was determined as 100%.
As for `CC(=O)N1CC(c2ccc(-c3ccc(OC(F)(F)F)cc3)cc2)N=C1c1c(F)cccc1F` (stereo not drawn) [Example I-7a, 1-acetyl-4-(4′-trifluoromethoxy-4-biphenylyl)-2-(2,6-difluorophenyl)-4,5-dihydro-1H-imidazole], the figures for the kill in data set [1], in data set [4] and in data set [3] (setting [5]) were 100%, 90% and 100%, respectively.
In turn, `NC(=S)N1CC(c2ccc(-c3ccc(OC(F)(F)F)cc3)cc2)N=C1c1c(F)cccc1F` (stereo not drawn) [Example I-8, 4-(4′-trifluoromethoxy4-biphenylyl)-2-(2,6-difluorophenyl)-1-thiocarbamoyl-4,5-dihydro-1H-imidazole] registered a melting point of 93 to 95 °C. The kill in data set [1] was found to be 100%. In data set [4], this molecule gave a kill of 100%. Besides, the kill in data set [3] (setting [5]) was determined as 95%.
